Where “and” joins values, the source holds several entries; their conditions need not be identical. Equal values may be shown once. Entries after “also recorded” stand apart in the source; their conditions may differ. Read-outs that look alike come from different tables or passages of the source.
Assays:
[1] = target: Human sEH (HsEH) (Homo sapiens (Human), UniProt P34913); test: Spectrophotometric sEH inhibition assay (NEP2C substrate), recombinant human sEH; type: biochemical
Experimental: (§1) Recombinant mouse sEH (MsEH) and human sEH (HsEH) were produced in a baculovirus expression system as previously reported. […] The expressed proteins were purified from cell lysate by affinity chromatography. […] Protein concentration was quantified using the Pierce BCA assay using bovine serum albumin as the calibrating standard.
(§2) The mixture was incubated at 30° C. for 5 minutes. […] Assays were performed in quadruplicate.

[2] = target: recombinant mouse sEH (MsEH) (Mus musculus (Mouse), UniProt P34914); test: Spectrophotometric sEH inhibition assay (NEP2C substrate), recombinant mouse sEH; type: biochemical
Experimental: as §1, §2

[3] = system: SHR (spontaneously hypertensive rat); test: Systolic blood pressure by tail cuff in SHR; type: in vivo; conditions: for effect on blood pressure in the SHR: dose equimolar to 3 mg/kg DCU; for decrease in systolic blood pressure 6 hr after the dose / time by which blood pressure returned to baseline after the dose: single dose 3 mg/kg DCU or equimolar
Source text: Animals. Male SHR and WKY rats 3-13 wks of age were purchased from Charles River Laboratories (Wilmington, Mass.) and housed in a controlled environment with 12 hr light/dark cycles and fed standard laboratory chow for □ 3 days before euthanasia. All animal use was approved by the University of California San Francisco Committee on Animal Research and followed the National Institutes of Health guidelines for the care and use of laboratory animals. For isolation of kidney subcellular fractions, rats were anesthetized with methoxyflurane, the abdominal cavities were opened, and the kidneys were perfused with ice-cold saline. Perfused kidneys were rapidly removed, the cortex and medulla dissected out and immersed in liquid nitrogen. All tissue was stored at −80° C. until preparation of microsomes. In some cases WKY and SHR rats were housed in metabolic cages for up to three days and urine was collected over triphenylphosphine in 24 hr intervals. The urine volume was noted and aliquots were stored at −80° C. prior to extraction and quantitation of DHETs and EETs. […] Systolic blood pressure was measured at room temperature by a photoelectric tail cuff system (Model 179, IITC, Inc., Woodland Hills, Calif.) for up to four days following the dose of inhibitor. Blood pressures are reported as the average of three separate readings over a 30 min period. […] Similar inhibition studies were carried out with equimolar doses of N-cyclohexyl-N′-dodecylurea, N-cyclohexyl-N′-ethylurea and dodecylaamine.

[4] = system: 14,15-EET hydrolysis in vivo (sEH), SHR; test: Urinary DHET and EET excretion in SHR (GC-MS); design: species or system rat; conditions: 3 mg/kg i.p. daily, 24 hr urine after third dose, vehicle 2020
[5] = system: WKY rats; test: Systolic blood pressure by tail cuff in WKY rats; type: in vivo, rat; conditions: single 3 mg/kg dose
Source text: Animals. Male SHR and WKY rats 3-13 wks of age were purchased from Charles River Laboratories (Wilmington, Mass.) and housed in a controlled environment with 12 hr light/dark cycles and fed standard laboratory chow for □ 3 days before euthanasia. All animal use was approved by the University of California San Francisco Committee on Animal Research and followed the National Institutes of Health guidelines for the care and use of laboratory animals. For isolation of kidney subcellular fractions, rats were anesthetized with methoxyflurane, the abdominal cavities were opened, and the kidneys were perfused with ice-cold saline. Perfused kidneys were rapidly removed, the cortex and medulla dissected out and immersed in liquid nitrogen. All tissue was stored at −80° C. until preparation of microsomes. In some cases WKY and SHR rats were housed in metabolic cages for up to three days and urine was collected over triphenylphosphine in 24 hr intervals. The urine volume was noted and aliquots were stored at −80° C. prior to extraction and quantitation of DHETs and EETs. […] Systolic blood pressure was measured at room temperature by a photoelectric tail cuff system (Model 179, IITC, Inc., Woodland Hills, Calif.) for up to four days following the dose of inhibitor. Blood pressures are reported as the average of three separate readings over a 30 min period. […]

[6] = system: CYP epoxygenase; test: Renal microsomal arachidonic acid metabolism, CYP epoxygenase activity; type: biochemical, rat; conditions: concentrations up to 25 μM
Experimental: Renal microsomal arachidonic acid metabolism. Microsomes, cytosol, and S9 fractions were prepared from the renal cortex or outer medulla samples from a single animal as described previously (Kroetz, D. L. et al. Mol Pharmacol 52, 362-372 (1997), Su, P. et al. Am J Physiol 275, […]-438 (1998)). Reaction conditions for the in vitro determination of arachidonic acid epoxygenase activity, metabolite extraction and HPLC analysis were described in detail elsewhere (Su, P. et al. Am J Physiol 275, […]-438 (1998)).

[7] = system: Swiss Webster mice; test: Leukotoxin/isoleukotoxin-induced death in mice; type: in vivo, mouse; conditions: pretreatment 400 mg/kg i.p. in corn oil, 30 minutes before leukotoxin/isoleukotoxin methyl esters 700 mg/kg i.v.
Experimental: Male Swiss Webster mice (25-28 g) were purchased from Simonsen, Gilroy, Calif. The animals had free access to water and food. […] After 30 minutes of the pretreatment, the mice were treated intravenously through the tail vein with a 1:1 mixture of leukotoxin/isoleukotoxin methyl esters in ethanol (700 mg/kg, 1.0 ml/kg).

[8] = system: CYP ω-hydroxylase; test: Renal microsomal arachidonic acid metabolism, ω-hydroxylase activity; type: biochemical, rat; conditions: concentrations up to 25 μM
[9] = system: insect cell culture expressing rat mEH; test: Toxicity of epoxide-containing xenobiotics in insect cell culture expressing rat mEH; type: cell-based
Source text: The micosomal enzyme play a significant role in the metabolism of xenobiotics such as polyaromatic toxicants. Additionally, polymorphism studies have underlined a potential role of this enzyme in relation to several diseases, such as emphysema, spontaneous abortion and several forms of cancer. Inhibition of recombinant rat and human mEH can be obtained using primary ureas, amides, and amines. […].

[10] = Table 2, MsEH […], read-out: Mouse sEH IC50
[11] = Table 1, MsEH […], read-out: Mouse sEH IC50
[12] = Table 1, HsEH 0.2 μM (text b16: […])
[13] = unpublished data, C. Morisseau and B. Hammock, 2000, read-out: IC50 with mouse sEH

| Structure (SMILES) | IC50 ([1]; Table 2, HsEH […]) | IC50 [2, 10] | also measured |
| --- | --- | --- | --- |
| ON=C(c1ccccc1)C1OC1c1ccccc1 (racemic) [C6H5 / C6H5 / C═NOH / ±] | 0.29 ± 0.01 µM | 3.5 ± 0.5 µM |  |
| OC(c1ccccc1)C1OC1c1ccc(F)cc1 (racemic) [4-F-C6H4 / C6H5 / CH—OH / ±] | 18 ± 2 µM | 72 ± 16 µM |  |
| [O-][S+](c1ccccc1)C1OC1c1ccc(-c2ccccc2)cc1 (racemic) [4-C6H5—C6H4 / C6H5 / S═O / ±] | 70 ± 3 µM | 73 ± 5 µM |  |
| O=C(c1ccccc1)C1OC1c1ccc(-c2c(F)c(F)c(F)c(F)c2F)cc1 (racemic) [4-C6F5—C6H4 / C6H5 / C═O / ±] | 0.2 ± 0.01 µM | 0.14 ± 0.01 µM |  |
| O=[N+]([O-])c1ccc(C2OC2CO)cc1 (racemic) [4-NO2—C6H4 / H / CH—OH / ±] |  | 5 ± 1 µM |  |
| O=C(c1ccccc1)C1OC1c1ccccc1 (racemic) [C6H5 / C6H5 / C═O / ±] | 0.3 ± 0.1 µM | 2.9 ± 0.3 µM |  |
| ON=C(c1ccccc1)C1OC1c1ccc(-c2ccccc2)cc1 (racemic) [4-C6H5—C6H4 / C6H5 / C═NOH / ±] | 35 ± 1 µM | 42 ± 3 µM |  |
| OCC1OC1c1ccccc1 (stereo not drawn) [C6H5 / H / CH—OH / S,S] |  | 2400 ± 46 µM |  |
| CCCCCCCCCCCCNC(=O)NC1CCCCC1 [Compound 297] |  |  | IC50 [2, 11]: 0.05 ± 0.01 µM |
| CCCCCCCCNC(=O)NCCC [Compound 429] |  |  | IC50 [1, 12]: 1.7 ± 0.4 µM; IC50 [2, 11]: 0.38 ± 0.04 µM |
| CCCCCCCCCCCCN [dodecylamine, reference compound] |  |  | effect on blood pressure in the SHR [3]: no effect |
| CCCCCCCCCCCCNC(=O)CC1CCCCC1 [Compound 514] |  |  | IC50 [2, 11]: 0.27 ± 0.01 µM |
| O=C(Nc1ccc(Cl)c(Cl)c1)Nc1ccc(Cl)c(Cl)c1 [Compound 299] |  |  | IC50 [2, 11]: 0.7 ± 0.1 µM |
| OCC1OC1c1ccccc1 (stereo not drawn) [C6H5 / H / CH—OH / R,R] |  | 1100 ± 23 µM |  |
| O=C(Nc1ccc(Cl)cc1)NC1CCCCC1 [Compound 20] |  |  | IC50 [1, 12]: 0.4 ± 0.05 µM; IC50 [2, 11]: 0.19 ± 0.02 µM |
| O=C(NC1CCCCC1)NC1CCCCC1 [DCU, N,N′-dicyclohexylurea] |  |  | excretion of total epoxygenase-derived products (EETs and DHETs) [4]: 1237 pg/mg creatinine; decrease in systolic blood pressure 6 hr after the dose ([3]; SHR): 22±4 mm Hg and 22 mm Hg; time by which blood pressure returned to baseline after the dose ([3]; SHR): ≤ 24 h; systolic blood pressure ([3]; SHR, three to five hr after the fourth daily 3 mg/kg dose, vehicle 128±5): 102±5 mm Hg; effect on blood pressure in the WKY [5]: no effect; also recorded: unaffected; effect on CYP epoxygenase activity [6]: no effect; effect on animal death induced by leukotoxin/isoleukotoxin [7]: either blocked the animal death induced by leukotoxin/isoleukotoxin or lengthened the lives of the mice; effect on ω-hydroxylase activity [8]: no effect |
| [O-][S+](c1ccccc1)C1OC1c1ccccc1 (racemic) [C6H5 / C6H5 / S—O / ±] | 0.31 ± 0.02 µM | 2.3 ± 0.4 µM |  |

| Structure (SMILES) | IC50 ([1]; Table 2, HsEH […]) | IC50 [2, 10] | also measured |
| --- | --- | --- | --- |
| O=C(Nc1ccc(O)cc1)NC1CCCCC1 [Compound 128] |  |  | IC50 [1, 12]: 11.1 ± 0.8 µM; IC50 [2, 11]: 0.79 ± 0.08 µM |
| O=[N+]([O-])c1ccc(C2OC2CO)cc1 (stereo not drawn) [4-NO2—C6H4 / H / CH—OH / S,S] |  | 1.6 ± 0.6 µM |  |
| CCNC(=O)NC1CCCCC1 [N-cyclohexyl-N′-ethylurea] |  |  | effect on blood pressure in the SHR [3]: no effect; IC50 [2, 13]: 51.7 ± 0.7 µM |
| CCCCCCCC/C=C/CCCCCCCC(N)=O [elaidamide] |  |  | effect on toxicity of epoxide-containing xenobiotics [9]: enhances the toxicity effects of epoxide-containing xenobiotics |
| COC(c1ccccc1)C1OC1c1ccccc1 (racemic) [C6H5 / C6H5 / CH—OCH3 / ±] | 34 ± 1 µM | 103 ± 5 µM |  |
| CC(C)(C)CC(C)(C)NC(=O)NC1CCCCC1 [Compound 347] |  |  | IC50 [1, 12]: 3.1 ± 0.07 µM; IC50 [2, 11]: 0.07 ± 0.01 µM |
| O=C(c1ccccc1)C1OC1c1ccc(F)cc1 (racemic) [4-F-C6H4 / C6H5 / C═O / ±] | 0.3 ± 0.1 µM | 1.3 ± 0.3 µM |  |
| OC(c1ccccc1)C1OC1c1ccccc1 (racemic) [C6H5 / C6H5 / CH—OH / ±] | 22 ± 2 µM | 12.6 ± 0.9 µM |  |
| CCCCCCCCCCCCNC(=O)NC1CCCCC1 [N-cyclohexyl-N′-dodecylurea] |  |  | decrease in systolic blood pressure 6 hr after the dose ([3]; SHR): 12±2 mm Hg and 12 mm Hg; time by which blood pressure returned to baseline after the dose ([3]; SHR): ≤ 24 h; IC50 [2, 13]: 0.05 ± 0.01 µM |
| Cc1ccc(C(O)C2OC2c2ccc(-c3ccccc3)cc2)cc1 (racemic) [4-C6H5—C6H4 / 4-CH3—C6H4 / CH—OH / ±] | 0.15 ± 0.02 µM | 0.09 ± 0.01 µM |  |
| COC(c1ccccc1)C1OC1c1ccc(-c2ccccc2)cc1 (racemic) [4-C6H5—C6H4 / C6H5 / CH—OCH3 / ±] | 1.36 ± 0.07 µM | 0.48 ± 0.05 µM |  |
| O=[N+]([O-])c1ccc(C2OC2CO)cc1 (stereo not drawn) [4-NO2—C6H4 / H / CH—OH / R,R] |  | 1200 ± 25 µM |  |
| CC(=O)C1OC1c1ccc([N+](=O)[O-])cc1 (racemic) [4-NO2—C6H4 / CH3 / C═O / ±] | 269 ± 5 µM | 163 ± 11 µM |  |
| CC(O)C1OC1c1ccc([N+](=O)[O-])cc1 (racemic) [4-NO2—C6H4 / CH3 / CH—OH / ±] | 39 ± 1 µM | 6.5 ± 0.2 µM |  |
| Cc1ccc(C(=O)C2OC2c2ccc(-c3ccccc3)cc2)cc1 (racemic) [4-C6H5—C6H4 / 4-CH3—C6H4 / C═O / ±] | 0.19 ± 0.03 µM | 0.1 ± 0.01 µM |  |
| OC(c1ccccc1)C1OC1c1ccc(-c2ccccc2)cc1 (racemic) [4-C6H5—C6H4 / C6H5 / CH—OH / ±] | 0.72 ± 0.03 µM | 0.51 ± 0.04 µM |  |

From patent publication US8815951B2, “Inhibitors of epoxide hydrolases for the treatment of inflammation” (The Regents of the University of California, priority 1996, dated 2014)
